Experimental data as given in PMC9775191, “A Subset Screen of the Compounds Australia Scaffold Library Identifies 7-Acylaminodibenzoxazepinones as Potent and Selective Hits for Anti-Giardia Drug Discovery” (Biomedicines, 2022).

Test system: G. duodenalis BRIS/91/HEPU/1279
Assay: Primary Giardia screen at 10 µM (live-cell imaging, automated counting)
Assay type: cell-based, Giardia duodenalis
Conditions: for % Inhibition n=1 48h / % Inhibition n=1 24h: first singlicate assay; for % Inhibition n=2 24h / % Inhibition n=2 48h: re-assessment
In short: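 Compounds were tested once each at 10 μM final (0.2% DMSO) in culture medium under 3% O2, 5% CO2 in N2. Growth was read at 24 and 48 h by live-cell imaging with automated counting, and inhibition expressed as percent growth versus 0.2% DMSO vehicle after media-only background subtraction.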

| SMILES | % Inhibition n=1 48h [%] | also measured |
| --- | --- | --- |
| CC(=O)N1CCCN(C(=O)c2cc(C3CC3)[nH]n2)CC1 [SN00778148] | 1.1 | – |
| CCC1c2ccsc2CCN1C(=O)c1cc(-c2csc(C)n2)c[nH]1 (stereo not drawn) [SN00778239] | 3.8 | – |
| CSc1ccc(-c2csc(CN3CCN(C(C)=O)CC3)n2)cc1 [SN00778360] | 12.1 | – |
| O=C(CN1C(=O)NC2(CCc3ccccc32)C1=O)N1CCCC(c2nnc3ccccn23)C1 (stereo not drawn) [SN00778393] | 0.0 | – |
| c1cnc(N2CCCN(c3nc4ccccc4o3)CC2)nc1 [SN00778442] | 32.5 | – |
| Cc1nc(-c2ccccc2)c(C(=O)N2CCCN(S(=O)(=O)c3ccc(F)cc3)CC2)s1 [SN00778504] | 9.7 | – |
| CCn1cc(CN2CCCN(C(=O)c3cc(C4CC4)on3)CC2)cn1 [SN00778709] | 0.0 | – |
| Cc1ccc(-c2nc(C)sc2CC(=O)N2CCN(Cc3nc(N)c4ccccc4n3)CC2)cc1 [SN00778718] | 9.0 | – |
| c1ccc(-c2cc(CN3CCOC(Cn4cncn4)C3)on2)cc1 (stereo not drawn) [SN00778747] | 6.8 | – |
| CN(C)C(=O)CN1CCCN(Cc2ncc(C(C)(C)C)o2)CC1 [SN00778763] | 1.9 | – |
| Cc1nc(CN2CCCNCC2)oc1C [SN00778765] | 0.0 | – |
| Cc1ccc(S(=O)(=O)C2(C(=O)Nc3cn[nH]c3)CCC2)cc1 [SN00778835] | 0.0 | – |
| Cc1nn(CCC(=O)Nc2cccc(F)c2)c(=O)c2noc(C)c12 [SN00778869] | 21.9 | Average % Inhibition 24h: 0.0%; % Inhibition n=1 24h: 0.0%; % Inhibition n=2 24h: 0.0%; Average % Inhibition 48h: 40.9%; % Inhibition n=2 48h: 59.9% |
| CCOC(=O)N1CCN(C(=O)c2nn(-c3ccccc3)c3c2CCC3)CC1 [SN00778954] | 38.8 | Average % Inhibition 24h: 6.2%; % Inhibition n=1 24h: 12.5%; % Inhibition n=2 24h: 0.0%; Average % Inhibition 48h: 36.1%; % Inhibition n=2 48h: 33.3% |
| Cc1noc2ncc(C(=O)N3CCN(C(C)C)CC3)cc12 [SN00779057] | 0.0 | – |
| O=C1CC(C(=O)N2CCN(S(=O)(=O)c3ccc(Br)cc3)CC2)c2ccc(F)cc2N1 (stereo not drawn) [SN00779129] | 0.0 | – |
| CCCn1c(=O)c2c(nc3n2CCN3c2ccc(CC)cc2)n(C)c1=O [SN00779194] | 0.0 | – |
| Cn1c(=O)n(CC(=O)C(C)(C)C)c(=O)c2c1nc1oc(C(C)(C)C)cn12 [SN00779257] | 18.6 | – |
| Cn1cc(C(=O)N2CCCC2C2CCCCC2)ccc1=O (stereo not drawn) [SN00779264] | 13.1 | – |
| O=[N+]([O-])c1ncn(Cc2nc(-c3ccc(C(F)(F)F)cc3)no2)n1 [SN00779286] | 16.5 | – |
| O=C(Nc1cccnc1)C1=NN(Cc2ccccc2)C(=O)CC1 [SN00779378] | 15.0 | – |
| CN(C)c1ccc(NC(=O)C2=NN(Cc3ccc(F)cc3)C(=O)CC2)cc1 [SN00779392] | 8.0 | – |

| SMILES | % Inhibition n=1 48h [%] | also measured |
| --- | --- | --- |
| CSCCC(NS(=O)(=O)c1ccc(C)cc1)C(=O)Nc1nc(C)c(-c2ccccn2)s1 (stereo not drawn) [SN00779415] | 0.0 | – |
| Cc1[nH]c(=O)sc1S(=O)(=O)N1CCN(c2ccccc2[N+](=O)[O-])CC1 [SN00779481] | 0.0 | – |
| O=C(Cc1csc(Cc2ccccn2)n1)Nc1ccc2nc(N3CCOCC3)sc2c1 [SN00779496] | 2.9 | – |
| CC(NC(=O)Cc1csc(Cc2ccccn2)n1)c1ccc(F)cc1 (stereo not drawn) [SN00779507] | 0.0 | – |
| Cc1c(C(=O)N2CCOCC2C)nnn1-c1cccc2c1CCN(Cc1ccccc1)C2 (stereo not drawn) [SN00779590] | 5.5 | – |
| CCc1nc(C)c2c(C)c(C(=O)N3CCN(c4ncccn4)CC3)sc2n1 [SN00779630] | 22.3 | – |
| CCc1nc(C)c2c(C)c(C(=O)N3CCN(Cc4ccc(OC)c(F)c4)CC3)sc2n1 [SN00779632] | 14.8 | – |
| O=S(=O)(c1ccc(Cl)cc1)N1CCC(c2nc(-c3c(Cl)cccc3Cl)no2)CC1 [SN00779695] | 11.2 | – |
| COc1cc(-c2noc(-c3cc(C4CC4)n[nH]3)n2)cc(OC)c1OC [SN00779739] | 13.7 | – |
| O=C(c1ccc2nncn2c1)N1CCc2[nH]nc(C(F)(F)F)c2C1 [SN00779777] | 3.6 | – |
| CCc1ncncc1C(=O)N1CCN(Cc2nc(C(C)C)no2)CC1 [SN00779817] | 26.6 | – |
| CCN(CC)C(=O)C1CSCN1C(=O)c1cc(C)nc2c1nc1n2CCCCC1 (stereo not drawn) [SN00779876] | 62.1 | Average % Inhibition 24h: 1.0%; % Inhibition n=1 24h: 1.9%; % Inhibition n=2 24h: 0.0%; Average % Inhibition 48h: 31.1%; % Inhibition n=2 48h: 0.0% |
| O=c1c2ccsc2ncn1Cc1noc(-c2ccsc2)n1 [SN00779979] | 0.0 | – |
| Cc1ccc(C)c(NC(=O)Cc2nc(Cn3cnc([N+](=O)[O-])c3)cs2)c1 [SN00779996] | 47.9 | Average % Inhibition 24h: 8.5%; % Inhibition n=1 24h: 0.0%; % Inhibition n=2 24h: 16.9%; Average % Inhibition 48h: 59.9%; % Inhibition n=2 48h: 71.9% |
| O=C1CCCN1CC1CCCCN1c1cc(Cl)c(C(F)(F)F)cc1[N+](=O)[O-] (stereo not drawn) [SN00780038] | 9.6 | – |
| CN1C(=O)CC(C(=O)NNC(=O)COc2ccccc2-c2ccccc2)C1c1cccnc1 (stereo not drawn) [SN00780071] | 9.4 | – |
| O=C(c1ccc[nH]c1=S)N1CCCC(CN2CCN(c3ccccn3)CC2)C1 (stereo not drawn) [SN00780166] | 0.0 | – |
| Cc1cc(N2C(=O)C(O)=C(C(=O)c3ccc(Cl)cc3)C2c2ccc([N+](=O)[O-])cc2)no1 (stereo not drawn) [SN00780175] | 59.1 | Average % Inhibition 24h: 6.4%; % Inhibition n=1 24h: 12.8%; % Inhibition n=2 24h: 0.0%; Average % Inhibition 48h: 29.6%; % Inhibition n=2 48h: 0.0% |
| COc1ccc(OC)c(C2C(C(=O)c3ccco3)=C(O)C(=O)N2c2cc(C)on2)c1 (stereo not drawn) [SN00780182] | 21.6 | – |
| O=C(CCNS(=O)(=O)c1cccnc1)N1CCCC(c2nc3ccccc3o2)C1 (stereo not drawn) [SN00780535] | 0.0 | – |
| O=C1OCCN1CCCN1CCCC(c2nc3ccccc3o2)C1 (stereo not drawn) [SN00780555] | 0.0 | – |
| CCOc1ccccc1OC1CCN(c2ncnc3nc[nH]c23)CC1 [SN00780570] | 31.1 | – |

| SMILES | % Inhibition n=1 48h [%] | also measured |
| --- | --- | --- |
| Cc1ccc(C)c(OC2CCN(c3ncnc4nc[nH]c34)CC2)c1 [SN00780571] | 12.5 | – |
| Cc1nc(CN2CCN(C(=O)c3c(C)c(C)n[nH]c3=O)CC2)cs1 [SN00780594] | 0.0 | – |
| C=CCc1ccc(OCC(O)CN2C(=O)NC(C)(c3ccccn3)C2=O)c(OC)c1 (stereo not drawn) [SN00780622] | 48.2 | – |
| COC(=O)c1c(C(=O)OC)c(-c2ccc(NS(=O)(=O)c3ccc(C)s3)cc2)n2c1CCC2 [SN00780656] | 9.3 | – |
| CC(C)(C)c1nc(CN2CCCN(C(=O)CCCNC(=O)NC3CCCCC3)CC2)no1 [SN00780682] | 11.6 | – |
| Cc1ccc(C)c(NC(=O)N2CCC(c3c[nH]c4ncccc34)CC2)c1 [SN00780701] | 0.0 | – |
| c1ccc(CCN2CCC(c3c[nH]c4ncccc34)CC2)nc1 [SN00780706] | 11.5 | – |
| CCCc1cc(N2CCOCC2)n2nc(C)c(-c3ccccc3)c2n1 [SN00780810] | 20.2 | – |
| O=C(C1CC=CCC1)N1CCN(S(=O)(=O)c2c[nH]c3ncccc23)CC1 (stereo not drawn) [SN00781077] | 7.5 | – |
| CCCCC(=O)N1CCN(S(=O)(=O)c2c[nH]c3ncccc23)CC1 [SN00781078] | 2.4 | – |
| O=C(Cc1ccccc1Cl)NCCc1noc(-c2ccccn2)n1 [SN00781138] | 21.7 | – |
| CNC(=O)Cc1noc(-c2cccc(-n3cccn3)n2)n1 [SN00781149] | 4.9 | – |
| O=S(=O)(Cc1ccc(C(F)(F)F)cc1)Cc1noc(C2CC2)n1 [SN00781153] | 0.0 | – |
| CN1CCN(CC2CCN(c3ccc([N+](=O)[O-])cc3Cl)CC2)CC1 [SN00781176] | 33.0 | – |
| N/C(=N/OCc1ncc(-c2cccs2)o1)c1ccc(Oc2ccc(F)cc2)nc1 [SN00781212] | 41.6 | – |
| O=C(Cc1csc(N2CCCNC2=O)n1)Nc1ccccc1OC(F)F [SN00781228] | 8.7 | – |
| COCCOCC(C)NC(=O)Cc1csc(N2CCCNC2=O)n1 (stereo not drawn) [SN00781237] | 11.2 | – |
| Nc1cc(C2CCNCC2)[nH]n1 [SN00781241] | 7.2 | – |
| C1CNCC2CCCN2C1 (stereo not drawn) [SN00781270] | 3.1 | – |
| Cc1ccccc1-c1noc(Cn2c(-c3ccccn3)noc2=O)n1 [SN00781291] | 0.0 | – |
| CCCc1noc(Cn2c(-c3ccc(OC)c(OC)c3)noc2=O)n1 [SN00781301] | 0.0 | – |
